Common to all, as to assay: NCI anticancer screen, dose series, 48 h
Assay [1] has as its system A549 NSCLC.
For assay [2], the system named is HOP-92 NSCLC.
The subject of assay [3] is M14 melanoma.
The test system of assay [4] is MOLT-4 leukemia.
Assay [5] relates to NCI-H226 lung.
Assay [6] deals with SK-MEL-5 melanoma.
Assay [7] has as its system SN12C renal.
Assay [8] concerns T-47D breast.
Assay [9] relates to U251 CNS.
Assay [10] concerns UACC-62 melanoma.

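A five-concentration, 48-hour dose response in 96-well plates underlies each endpoint, interpolated linearly between surrounding concentrations. At the TGI there is no net growth.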 Where only a bound is given, the exact number is not on record here.

On to `CCOC(=O)CC[C@H](N)C(=O)N[C@H](Cc1ccc(N(CCCl)CCCl)cc1)C(=O)OCC`, for which the TGI was above 100 µM in [1]; 3.24 µM in assay [2]; 12.9 µM in assay [3]; 31.5 µM in assay [4]; above 47.7 µM in [5]; above 100 µM in [6]. The values for the TGI in assay [7], in [8] and in assay [9] were 16.7 µM, 6.55 µM and above 33.7 µM, respectively.
Regarding `CCOP(=O)(OCC)C(C)(C)OC(=O)NC#N`, the TGI in assay [1], in assay [2], in [3], in assay [4], in assay [5] and in assay [6] was above 100 µM each time. In addition, the TGI in assay [7], in [8], in [9] and in assay [10] was above 100 µM each time.
For `C=CC1(c2ccc(OC)cc2)OCCCO1`, the TGI in [1], in assay [2], in assay [3], in assay [4], in [5] and in assay [6] was above 100 µM each time. Further, the TGI in [7], in [8], in [9] and in assay [10] was above 100 µM in each case.
On to `CC(=O)N(CN1C(=O)CCC1C(=O)O)c1ccccc1Cl` (stereo unspecified), for which the TGI in assay [1], in assay [2], in [3], in assay [4], in [5] and in assay [6] was above 100 µM each time. The TGI in assay [7], in assay [8], in [9] and in assay [10] was above 100 µM throughout.
For the molecule `COc1ccc(C[C@@H]2OC3(C=CC(=O)C=C3)O[C@H]2Cc2ccc(OC)cc2)cc1`, the TGI in assay [1] was found to be 11.2 µM; in [2], 1.82 µM; in assay [3] it was 2.53 µM; in assay [4], 2.01 µM; in assay [5] it was 0.652 µM; in assay [6], 2.94 µM. Moreover, the TGI was 3.16 µM in assay [7], above 100 µM in assay [8], 2.75 µM in assay [9] and 3.7 µM in assay [10].
As to `O=C(Oc1cccc(Cl)c1)c1cc2cc(CCl)ccc2oc1=O`, the TGI was above 100 µM in [1]; 43.1 µM in assay [2]; 31.4 µM in assay [3]; above 100 µM in assay [4]; above 100 µM in assay [5]; 33.2 µM in [6]. Also, the TGI in assay [7] is above 100 µM; in assay [8] it was above 100 µM; in assay [10], 28.2 µM.
In the case of `CN1B(c2ccccc2)N(C)C(=O)N(C)C1=O`, the TGI in assay [1], in assay [2], in assay [3], in assay [5], in assay [6] and in [7] was above 100 µM throughout. Moreover, the TGI in assay [8], in [9] and in assay [10] was above 100 µM throughout.
On to `C#CCCCC(=O)N(C(=O)CS(=O)CC)c1ccccc1` (stereo unspecified), for which the TGI in [1], in [2], in assay [3], in [4], in assay [5] and in [6] was above 100 µM each time. For the same molecule, the TGI in assay [7], in assay [8], in assay [9] and in assay [10] was above 100 µM each time.
Consider `CC1(C)c2ccccc2C(O)C12CCC(=O)CC2` (stereo unspecified), for which the TGI in [1] was 93.9 µM; in [2] it was above 100 µM; in assay [3], above 100 µM; in assay [5] it was above 100 µM; in assay [6] it was above 100 µM; in assay [7], above 100 µM. The TGI in [8], in assay [9] and in assay [10] was above 100 µM each time.
In the case of `CN(C)CCNc1nc2c(no[n+]2[O-])c2ccccc12`, the TGI came out at 33.5 µM in assay [1]; 45.1 µM in [2]; 30.3 µM in [3]; 95.8 µM in assay [4]; 54.9 µM in [5]; 28.4 µM in assay [6]. The TGI in [7] was above 100 µM; in assay [8], above 100 µM; in assay [9] it was 83.8 µM; in assay [10], 41.4 µM.
For the molecule `C=C1c2nc3ccccc3n2C=C(c2ccc(OC)cc2)N1c1ccc(OCCN2CCOCC2)cc1`, the TGI in [1] was above 100 µM; in assay [2], above 100 µM; in assay [3], above 55.4 µM; in assay [4], above 100 µM; in [5], above 100 µM; in [6], above 100 µM. Moreover, the TGI in assay [7], in assay [8], in [9] and in assay [10] was above 100 µM in each case.
`CC1(C)C2CCC(N)(C2)C1O` (stereo unspecified): the TGI in [1], in assay [2], in assay [3], in [4], in assay [5] and in assay [6] was above 100 µM throughout. For the same molecule, the TGI in assay [7], in assay [8], in [9] and in [10] was above 100 µM throughout.
In the case of `CC1(C)CC2C(C1=O)C1(C)CCCC2(C)C1=O` (stereo unspecified), the TGI in assay [1], in [2], in [3], in assay [4], in [5] and in assay [6] was above 100 µM each time. Moreover, the TGI in assay [7], in assay [8], in assay [9] and in assay [10] was above 100 µM throughout.
Take `O=S(=O)(/N=C(\NO)Nc1ccc(Cl)cc1)c1ccc(-c2ccccn2)s1`: the TGI in assay [1], in [2], in assay [3], in assay [4], in assay [5] and in assay [6] was above 100 µM each time. The TGI in [7] was 72.9 µM; in assay [8], above 100 µM; in [9], above 100 µM; in assay [10] it was above 100 µM.
Consider `CCN(CC)CCC(=O)c1ccc(Oc2ccc(F)cc2)cc1`, for which the TGI in assay [1] was above 100 µM; in assay [2], 34 µM; in assay [3] it was 34.9 µM; in assay [4] it was 51.3 µM; in [5] it was above 100 µM; in [7], 32.1 µM. Besides, the TGI in assay [8] turned out to be 42 µM; in assay [9] it was 31.1 µM; in assay [10] it was 31.9 µM.
Turning to `CCCCCCCCCCCCCCCCP(=O)([O-])OCC[N+](C)(C)C`, the TGI in assay [1] was 32.9 µM; in assay [2], 29 µM; in [3], 28.9 µM; in assay [4] it was 33.4 µM; in assay [5], 40.9 µM; in assay [6], 30 µM. The TGI amounted to 26.2 µM in [7], 35.5 µM in [8], 31.2 µM in assay [9] and 29.3 µM in assay [10].
As to `C=CCC(SC)C1=C(C)C(=O)c2ccccc21` (stereo unspecified), the TGI in assay [1], in assay [2], in assay [3], in assay [4], in assay [5] and in [6] was above 10 µM in each case. Besides, the TGI in assay [7], in assay [8], in assay [9] and in assay [10] was above 10 µM in each case.
`CC(=O)OCC1OC(N2C(S)=C(C#N)C(c3ccco3)C(C(C)=O)=C2c2ccccc2)C(OC(C)=O)C(OC(C)=O)C1OC(C)=O` (stereo unspecified): the TGI in assay [1] was above 100 µM; in assay [2] it was 95.2 µM; in [3], above 100 µM; in assay [4], above 100 µM; in assay [5], above 100 µM; in assay [6] it was above 100 µM. The TGI in assay [7], in assay [8], in [9] and in assay [10] was above 100 µM in each case.
In the case of `NCCCC[C@H](N)C(=O)Nc1ccc(-c2nc3ccccc3s2)cc1Cl`, the TGI in assay [1] is 9.08 µM; in assay [2] it was 60 µM; in [3], 13.8 µM; in assay [4], above 24.1 µM; in [5], 4.62 µM; in assay [6] it was 25.9 µM. In addition, the TGI in [7] was 27.7 µM; in assay [8] it was 19.4 µM; in assay [9] it was 13.7 µM; in assay [10], 28.5 µM.
With `CN(C)c1ccc(/C=c2/c3cc([N+](=O)[O-])ccc3n3c2cc(-c2ccccc2)[n+]3C)cc1`, the TGI stood at 11.7 µM in assay [1]; 3.16 µM in [2]; 2.66 µM in assay [3]; 8.85 µM in [4]; 36 µM in assay [5]; 1.11 µM in assay [6]. Further, the values for the TGI in assay [8], in assay [9] and in [10] were 1.81 µM, 1.32 µM and 1.87 µM, respectively.
Take `COc1cc2c(cc1OCCCCCOc1cc3c(cc1OC)C(=O)N1CCC[C@H]1CN3)N=C[C@@H]1CCCN1C2=O`: the TGI in [1] is 27 µM; in assay [2] it was 75.1 µM; in assay [3], 10.8 µM; in [4], 9.24 µM; in [5], 29.1 µM; in assay [6] it was 12.2 µM. Also, the TGI was 18.7 µM in [7], above 100 µM in [8], 5.24 µM in assay [9] and 6.72 µM in assay [10].
Regarding `OCC(O)C(O)C(O)C(O)/C=N/Nc1nc(O)c(/C=C2\C=Nc3ccccc32)[nH]1` (stereo unspecified), the TGI in assay [1], in assay [2], in assay [3], in assay [4], in [5] and in [6] was above 100 µM in each case. The TGI in assay [7], in assay [8], in assay [9] and in assay [10] was above 100 µM in each case.
Take `C#CCOC(=O)C(N)CCSC` (stereo unspecified): the TGI in [1], in assay [2], in assay [3], in [4], in [5] and in [6] was above 100 µM each time. The TGI in assay [7], in assay [8], in [9] and in [10] was above 100 µM in each case.
As to `C=CCN1CCC2(CC1)NC(=O)c1ccccc1O2`, the TGI in assay [1], in [2], in assay [3], in assay [4], in assay [5] and in [6] was above 100 µM in each case. Also, the TGI in assay [7], in [8], in assay [9] and in assay [10] was above 100 µM in each case.
`CC1CC[C@@]2(OC1)OC1C[C@H]3[C@@H]4CCC5CC(O)CC[C@]5(C)[C@H]4C/C(=N\N(C)C)[C@]3(C)C1[C@@H]2C` (stereo partly specified): the TGI in [1] was above 100 µM; in assay [2] it was above 100 µM; in [3], above 100 µM; in assay [4], above 100 µM; in assay [5] it was above 100 µM; in assay [6] it was 53.3 µM. For the same molecule, the TGI is 64.7 µM in assay [7], above 100 µM in assay [8], above 100 µM in assay [9] and above 100 µM in [10].
For `Cc1sc2nc3n(c(=O)c2c1C)N=C(c1ccc([N+](=O)[O-])cc1)CS3`, the TGI in assay [1], in [2], in [4], in assay [5], in assay [6] and in assay [7] was above 100 µM each time. Also, the TGI in [8], in assay [9] and in assay [10] was above 100 µM throughout.
In the case of `CC1=CC(=O)/C(=C/n2c(=S)[nH]c3ccccc32)C(=O)O1`, the TGI in assay [1], in [2], in [3], in assay [4], in assay [5] and in assay [7] was above 100 µM each time. For the same molecule, the TGI in [8], in assay [9] and in [10] was above 100 µM in each case.
Take `OC(c1ccccc1)(c1cccnc1)C(O)(c1ccccc1)c1cccnc1` (stereo unspecified): the TGI in assay [1], in assay [2], in assay [3], in [5], in assay [6] and in [7] was above 100 µM in each case. The TGI in assay [8], in [9] and in [10] was above 100 µM throughout.

The values above are taken from PubChem BioAssay (NCI).
